Data set [1] concerns HepG2 cells. As to conditions: cited from earlier work.
Data set [2] has as its system plasma apoA-I levels. Nature of the data set: Plasma apoA-I levels after two weeks of PI plus absorption enhancer (western immunoblotting). The settings on record: 60 mg/kg PI combined with the absorption enhancer (dose per Table 1), rats. It is filed as in vivo, Sprague Dawley rats. The procedure: Individual absorption enhancers were also incorporated into the 2 g bolus dose (Table 1). […] All animals were maintained on this regime for two weeks, at which time animals were euthanized and blood samples collected by cardiac puncture. Blood samples were collected into EDTA coated tubes, placed on ice, followed by centrifugation at 1500×g for 15 min at 4° C. to separate plasma. Plasma samples were stored at −20° C. until analysis of apoA-I could be performed. Plasma apoA-I levels were determined by western immunoblotting.
For orientation: A western blot detects proteins with antibodies after separation by electrophoresis.

For data set [3], the system named is HDL-C cholesterol. The settings on record: 5.5% by weight of rat chow, approximately 4 g/Kg body weight; cited from earlier work.
Data set [4] is described as follows: Effect of bile acids on absorption and transport of 3H-PI to the liver. It is filed as in vivo, Sprague Dawley rats. As to conditions: 120 mg/kg 3H-PI by gavage with 50 mg/kg bile acid; liver 4 hours post-gavage. The procedure: Pharmacokinetic studies were performed to determine if specific bile acids increase the absorption and transport of phosphatidylinositol (PI) to the liver. Sprague Dawley rats (300-350 g) were fasted overnight, followed by administration of 120 mg/kg ^3H-PI by gavage. 50 mg/kg of the bile acids deoxycholate or glycocholate were also incorporated into the gavage. Animals were euthanized after 4 hours post-gavage at which time liver samples were harvested. PI was extracted from the liver samples using the acidic Bligh and Dyer extraction method (Bligh, E. G.; Dyer, W. J. Can. J. Biochem. vol. 37: 911-917, 1959 and Honeyman, T. W. et al., Biochem J. vol. 212: 489-498, 1983). Radioactivity present in the organic phase was measured to determine the amount of PI that was transported to the liver.

The test system of data set [5] is plasma HDL-C and apoA-I. Nature of the data set: Oral PI in conventional formulations: increase in plasma HDL-C and apoA-I. As to conditions: oral PI about 5.6 g/day. It is filed as in vivo.
For data set [6] the following is noted: two pilot studies, children aged 4-19 years; cited from earlier work.

Like-named read-outs stand apart in the source and are kept apart here.

For `CC(C)c1c(C(=O)Nc2ccccc2)c(-c2ccccc2)c(-c2ccc(F)cc2)n1CC[C@@H](O)C[C@@H](O)CC(=O)O` [atorvastatin, reference compound], the “inhibition of cholesterol synthesis” value in data set [1] (concentrations between 0.01 to 10 μM) is reported as 45-65%.
Take `C[C@H](CCC(=O)O)[C@H]1CC[C@H]2[C@@H]3[C@H](O)C[C@@H]4C[C@H](O)CC[C@]4(C)[C@H]3CC[C@]12C` [chenodeoxycholate]: in data set [2], the “increase in plasma apoA-I relative to PI alone” value was determined as 2 fold.
Still for that read-out and setting: to `C[C@H](CCC(=O)NCC(=O)O)[C@H]1CC[C@H]2[C@@H]3[C@H](O)C[C@@H]4C[C@H](O)CC[C@]4(C)[C@H]3C[C@H](O)[C@]12C` [glycocholate] belongs 6.6 fold.
Still for that read-out and setting: as for `CCCCCCCCCCCC(=O)[O-].[Na+]` [sodium laurate], the figure is 3.7 fold.
On the same count and under the same terms, as for `CCCCCCCCCCCCOS(=O)(=O)[O-].[Na+]` [sodium lauryl sulfate], the figure is 7.7 fold.
With Bromelain, the “increase in plasma apoA-I relative to PI alone” value in data set [2] is 5.4 fold.
Regarding “Phosphatidic acid [Phosphatidic acid (PA)]”, the “increase of HDL-C cholesterol” value in data set [3] is recorded as “about 2 fold”.
For the molecule deoxycholate, in data set [4], the “increase of transport of PI to the liver” value came out at 20%. Besides, in data set [2], the “increase in plasma apoA-I relative to PI alone” value amounted to 2 fold.
In the case of phosphatidylinositol [PI], the “inhibition of cholesterol synthesis” value in data set [1] (concentration of 11.7 μM) is reported as 50%. Besides, in data set [5], the “increase in plasma HDL-C” value is on record as about 20% and the “increase in plasma apoA-I” value was about 10%.
Take phosphatidylserine [PS]: in data set [6], the “children with improved attention, behavior, learning performance and ameliorated negative mood” value is reported as 15 out of 20.

The values are drawn from US20060275356A1, “Pharmaceutical compositions for treating or preventing coronary artery disease” (priority 2005, published 2006).
